Source: article PMC4026281 (Journal of neurochemistry, 2012)
Values joined by “and” are separate entries in the source; they are usually repeats but may differ in a detail not shown here. Equal values may be shown once. “Also recorded” adds a separate entry of the source.

How the values were obtained:
[1] = test system: nAChRs on SuSC GABAergic terminals (crude synaptosomes); type: biochemical, mouse
[2] = test system: nAChRs, SuSC crude synaptosomes of nAChR subunit null mutant mice; type: biochemical, mouse
[3] = test system: nAChRs in SuSC membranes; type: binding, mouse (C57BL/6)
[4] = test system: nAChRs in SC core membranes; type: binding, mouse (C57BL/6)
[5] = test system: nAChR, SuSC; details: rat, in vivo; cited from earlier work
[6] = test system: α4β2* nAChR; details: cited from earlier work
[7] = test system: α6β2*-nAChR, crude striatal synaptosomes; type: biochemical, mouse
[8] = biological target: α-CtxMII-sensitive nAChR, SuSC crude synaptosomes (Mus musculus, UniProt Q8R4G9+Q9ERK7); type: biochemical
[9] = test system: SuSC crude synaptosomes; type: biochemical, mouse; details: n = 5
[10] = test system: α-CtxMII-sensitive nAChR, striatum; details: cited from earlier work
[11] = test system: rat α3β2 receptors; details: cited from earlier work
[12] = test system: α6β2* and α3β2* nAChR; details: cited from earlier work

Sequence of α-CtxMII-sensitive nAChR, SuSC crude synaptosomes (Q8R4G9 whole entry, looked up): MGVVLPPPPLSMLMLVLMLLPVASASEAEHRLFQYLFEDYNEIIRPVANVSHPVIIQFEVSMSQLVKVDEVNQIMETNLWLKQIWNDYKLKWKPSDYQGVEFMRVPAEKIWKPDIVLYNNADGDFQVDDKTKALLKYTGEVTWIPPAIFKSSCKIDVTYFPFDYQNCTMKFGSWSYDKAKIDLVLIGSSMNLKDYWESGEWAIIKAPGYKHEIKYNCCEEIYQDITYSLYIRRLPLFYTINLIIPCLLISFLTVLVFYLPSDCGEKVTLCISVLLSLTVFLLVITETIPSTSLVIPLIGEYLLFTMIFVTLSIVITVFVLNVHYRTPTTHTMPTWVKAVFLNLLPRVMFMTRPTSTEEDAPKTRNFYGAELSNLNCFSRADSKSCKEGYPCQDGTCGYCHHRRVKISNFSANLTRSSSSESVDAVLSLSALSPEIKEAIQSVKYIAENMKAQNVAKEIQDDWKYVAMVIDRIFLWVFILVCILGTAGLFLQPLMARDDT
Sequence of α-CtxMII-sensitive nAChR, SuSC crude synaptosomes (Q9ERK7 whole entry, looked up): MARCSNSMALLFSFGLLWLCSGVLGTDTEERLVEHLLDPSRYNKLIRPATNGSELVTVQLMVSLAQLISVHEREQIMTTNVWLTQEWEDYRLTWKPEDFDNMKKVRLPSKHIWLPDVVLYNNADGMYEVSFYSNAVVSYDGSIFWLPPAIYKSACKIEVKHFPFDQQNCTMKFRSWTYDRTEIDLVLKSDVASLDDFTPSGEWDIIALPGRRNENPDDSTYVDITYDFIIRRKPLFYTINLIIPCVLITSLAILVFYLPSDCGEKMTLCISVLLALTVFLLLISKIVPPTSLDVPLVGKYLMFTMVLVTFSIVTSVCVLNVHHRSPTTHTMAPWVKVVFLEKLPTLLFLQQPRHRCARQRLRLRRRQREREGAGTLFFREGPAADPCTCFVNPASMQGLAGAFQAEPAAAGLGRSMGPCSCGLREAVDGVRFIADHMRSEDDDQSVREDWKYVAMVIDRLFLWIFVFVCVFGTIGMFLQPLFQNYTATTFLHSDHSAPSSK

CC(=O)OCC[N+](C)(C)C [ACh, Acetylcholine]
loss of ACh-evoked [^3H]-GABA release in the absence of external calcium [1]: 94 ± 3%
maximal ACh-stimulated [^3H]-GABA release, α-CtxMII-resistant component [1]: 1.00 ± 0.20 × baseline
maximal ACh-stimulated [^3H]-GABA release, α-CtxMII-sensitive component [1]: 0.71 ± 0.08 × baseline
maximal [^3H]-GABA release, high sensitivity component [1]: 0.68 ± 0.19
maximal [^3H]-GABA release, low sensitivity component [1]: 1.47 ± 0.21
share of ACh-elicited [^3H]-GABA release due to α4β2*-type receptor [1]: ~65%
ACh-stimulated [^3H]-GABA release in β2^-/- mice [2]: entirely β2 subunit-dependent; also recorded: completely absent
ACh-stimulated [^3H]-GABA release remaining in α4^-/- mice, of WT activity [2]: 9.7 ± 1.1 % of WT activity remaining
decrease of total function by α4 subunit deletion [2]: > 90%

N#Cc1cc2c(cc1[N+](=O)[O-])=NC(=O)C(=O)N=2 [CNQX, 6-Cyano-7-nitroquinoxaline-2,3-dione]
effect of CNQX on ACh-stimulated [^3H]-GABA release ([1]; 100 μM, 5 min, n=4): no effect

CN1[C@@H]2CC[C@H]1C[C@@H](OC(=O)c1cc(Cl)cc(Cl)c1)C2 [MDL-72222, Tropanyl 3,5-dichlorobenzoate]
effect of MDL-72222 on ACh-stimulated [^3H]-GABA release ([1]; 1 μM, 5 min, n=5): no effect

C[C@]12N[C@H](Cc3ccccc31)c1ccccc12 [MK-801, (5S,10R)-(+)-5-Methyl-10,11-dihydro-5H-dibenzo[a,d]cyclohepten-5,10-imine]
effect of MK-801 on ACh-stimulated [^3H]-GABA release ([1]; 200 μM, 5 min, n=4): no effect

CNC1(C)C2CCC(C2)C1(C)C (stereo not shown) [Mecamylamine, mecamylamine]
effect on ACh-evoked [^3H]-GABA release (abstract) [1]: blocked
effect of mecamylamine on ACh-stimulated [^3H]-GABA release ([1]; 10 μM, 1 min, n=3): completely eliminated ACh-stimulated release of [^3H]-GABA

Nc1ncnc2c1ncn2[C@@H]1O[C@H](COP(=O)(O)OP(=O)(O)OP(=O)(O)O)[C@H]2OC3(O[C@H]21)C([N+](=O)[O-])=CC(=[N+]([O-])[O-])C=C3[N+](=O)[O-] (stereo partly shown) [TNP-ATP]
effect of TNP-ATP on ACh-stimulated [^3H]-GABA release ([1]; 10 μM, 4 min, n=3): no effect

[125I]c1ccc(C2CC3CCC2N3)cn1 (stereo not shown) [[^125I]-epibatidine]
Bmax, specific [^125I]epibatidine binding [3]: 100 ± 2 fmol/mg
Bmax, [^125I]-epibatidine binding [4]: 56 ± 2 fmol/mg

CN1[C@@H]2CC[C@H]1C[C@@H](OC(=O)C(CO)c1ccccc1)C2 (stereo partly shown) [atropine]
effect of atropine on ACh-stimulated [^3H]-GABA release [1]: no effect

[Cd] [cadmium]
block of ACh-stimulated [^3H]-GABA release by cadmium [1]: 94 ± 1%
effect on ACh-evoked [^3H]-GABA release (abstract) [1]: blocked

CN1[C@@H](CC(=O)c2ccccc2)CCC[C@H]1C[C@H](O)c1ccccc1 [lobeline]
visual responses originating in the SuSC [5]: reduced

CN1CCC[C@H]1c1cccnc1 [nicotine]
binding to α4β2* nAChR [6]: binds nicotine and other agonists with high affinity

α-conotoxin MII [α-CtxMII]
specific [^125I]epibatidine binding sensitive to inhibition by α-CtxMII ([3]; 0.0002 µM): 40 +/- 5% and 40.2 ± 5.2%
IC50 ([3]; read-out: IC50 for the α-CtxMII-resistant sites): > 1000 nM
inhibition of [^125I]-epibatidine binding [4]: not inhibited by α-CtxMII at concentrations below 1 μM
concentration at which maximal inhibition of [^3H]-GABA release was achieved [1]: 30 nM
effect of 100nM α-CtxMII on response to ACh [1]: reduced the response seen by stimulation with ACh, but did not eliminate it
nAChR-mediated SuSC [^3H]-GABA release inhibited by α-conotoxinMII (abstract) [1]: Approximately 50%
α-CtxMII sensitive fraction of total [^3H]-GABA release [1]: 58 ± 7%
IC50 ([1]; read-out: IC50, inhibition of ACh-stimulated [^3H]-GABA release): 1.05 nM
inhibition of ACh-stimulated [^3H]-dopamine release [7]: 41.2 ± 2.8%
lag period during which no recovery was observed [8]: approximately 5 min
functional recovery of ACh-evoked [^3H]-GABA release, of control ([8]; n = 3-4): 91 ± 18%
t1/2 for recovery from α-CtxMII inhibition ([8]; n = 3-4): 5.2 min and ~5 min
K^+-evoked [^3H]-GABA release in the presence of α-CtxMII [9]: 14.1 ± 2.7
α-CtxMII sensitive [^3H]-GABA release after β3 subunit gene deletion [2]: unaffected
α-CtxMII-sensitive [^3H]-GABA release after deletion of the α6 subunit [2]: no appreciable impact
[^3H]-GABA release in α6-null mutant mice ([2]; n = 4): indistinguishable from the same measures in wild-type mice
t1/2 of recovery from α-CtxMII inhibition, [^3H]-DA release [10]: ~26 min
t1/2 of recovery from α-CtxMII inhibition, rat α3β2 receptors [11]: approximately 4 minutes
time by which full recovery was observed, rat α3β2 receptors [11]: ≤ 26 min
affinity for α6β2* and α3β2* nAChR subtypes [12]: high affinity
subtypes inhibited by the α-conotoxin [12]: inhibits both α3β2*- and α6β2*-nAChR
